Experimental data published in patent US8609659B2, “Substituted 3,8-diazabicyclo[3.2.1]octane compounds” (Neuroscienze Pharmaness S.C.A.R.L., priority 2009, dated 2013).
Where two headings read alike, the source gives them in different places.

Columns and labels:
[1] = target: T1, δ opioidergic receptors (Mus musculus, UniProt P32300); assay: Ex-vivo model, isolated organ: electrically induced contractions of mouse vas deferens; details: for % contraction inhibition: no antagonist, average of 7 experiments; for activity towards the delta opioid receptors: inhibition of contractions antagonized by ICI 17.4864 or Naltrindol; for inhibition: read-out: % contraction inhibition after addition of ICI 17.4864
T1 construct: from tissue; host or cells: CD1 mouse vas deferens segments (isolated organ)
T1 sequence (P32300 whole entry): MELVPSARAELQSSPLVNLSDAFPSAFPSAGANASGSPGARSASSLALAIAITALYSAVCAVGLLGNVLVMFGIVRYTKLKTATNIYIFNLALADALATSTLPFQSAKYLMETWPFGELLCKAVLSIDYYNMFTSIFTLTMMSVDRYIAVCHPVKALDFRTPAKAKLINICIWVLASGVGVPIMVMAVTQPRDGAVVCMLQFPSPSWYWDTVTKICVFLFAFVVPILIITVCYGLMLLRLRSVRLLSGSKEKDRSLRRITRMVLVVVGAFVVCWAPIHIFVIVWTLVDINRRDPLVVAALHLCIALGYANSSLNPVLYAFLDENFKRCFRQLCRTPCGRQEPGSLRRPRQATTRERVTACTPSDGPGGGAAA
Experimental: Said effect is antagonized by selective antagonists of the delta opioid receptors, for example the compounds ICI 17.4864 and Naltrindol.
For evaluating the activity of the compounds of the invention on the delta opioid receptors, the compounds respectively obtained in Examples 6.1 and 6.9 were subjected to tests carried out on the basis of the method described by E. J. Bilsky et al. (J.P.E.T., 1995 April; 273 (1):359-366). The experiments were carried out on samples of vas deferent segments taken from CD1 mice (25-30 grams) immediately after sacrifice. After the explant, the vas deferent segments were transferred in a Petri dish containing a Krebs oxygenated solution (118.2 mM NaCl, 4.75 mM KCl, 1.19 mM KH2PO4, 25.0 mM NaHCO3, 11.0 mM glucose, and 2.54 mM CaCl2) in order to proceed to the cleaning of the samples and their subsequent dissection in segments. Segments of vas deferens were so obtained having a length of 1.0-1.2 cm. They were thus immersed in tubs containing 10 ml of an oxygenated Krebs solution (95% O2 and 5% CO2) and kept at a temperature of 37° C. One end of the vas deferens segment was attached to a fixed support, at the tub bottom, while the other end was connected to an isometric force transducer (WPI Fort10, Biological Instruments, Besozzo, Italy) for the registration of the contractions induced by electric stimuli. The samples were then allowed to equilibrate for 60 minutes, changing the Krebs solution every 15 minutes. The samples were then subjected to treatment cycles wherein the electrical stimulation lasted 3 minutes, with an interval of 15 minutes before the following stimulation. The isometric contractions were evoked with sequences of 3 pulses (sequence frequency 0.1 Hz; pulse duration 2 ms) by means of platinum electrodes placed at the sides of the samples. The electrical stimuli were generated by a Grass S88K stimulator and amplified (multiplexing pulse booster 316S; Ugo Basile, Comerio, Italy). The musculature contractions of the vas deferens were monitored by a computer, recorded and analyzed by an analysis system (PowerLab 400). The compounds of the invention were added to the vas deferens in cumulative doses, in the absence or in the presence of one of the following antagonists of the delta opioid receptors: ICI 17.4864 and Naltrindol.
The effect of the tested compounds on the contractions of vas deferens musculature was expressed in percent, calculated by referring the amplitude of the contractions induced by the electrical stimulations after each addition of the test compound to the amplitude of the contractions obtained in the absence of the same compound (100%).
The results obtained with the compounds of Examples 6.1 and 6.9 are reported, respectively, in Table 2 and in Table 3. The results are an average of the data obtained in seven different experiments.

[2] = target: T2, μ opioidergic receptors (Mus musculus, UniProt P42866); assay: Radioreceptorial binding, μ opioidergic receptors ([3H]-DAMGO, mouse brain membranes); details: 1 nM [3H]-DAMGO, CD1 mouse brain membranes, 25° C., 60 minutes
T2 construct: from tissue; host or cells: CD1 mouse brain (excluding cerebellum) membranes
T2 sequence (P42866 whole entry): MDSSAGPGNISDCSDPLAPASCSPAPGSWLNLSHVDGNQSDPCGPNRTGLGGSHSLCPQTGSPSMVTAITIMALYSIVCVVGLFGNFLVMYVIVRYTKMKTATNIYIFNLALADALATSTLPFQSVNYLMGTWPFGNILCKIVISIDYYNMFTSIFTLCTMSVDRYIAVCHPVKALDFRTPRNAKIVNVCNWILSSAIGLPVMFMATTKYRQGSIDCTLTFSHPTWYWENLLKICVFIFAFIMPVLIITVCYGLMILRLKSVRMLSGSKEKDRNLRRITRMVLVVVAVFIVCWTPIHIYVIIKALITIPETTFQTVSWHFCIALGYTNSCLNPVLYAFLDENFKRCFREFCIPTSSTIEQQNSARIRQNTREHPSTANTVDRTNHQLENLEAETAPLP

[3] = compound 10^−6 moles/litre + NTI 5 × 10^−8 M
[4] = compound 10^−7 moles/litre + NTI 5 × 10^−8 M
[5] = compound 10^−8 moles/litre + NTI 5 × 10^−8 M
[6] = compound 10^−9 moles/litre + NTI 5 × 10^−8 M
[7] = compound 10^−10 moles/litre + NTI 5 × 10^−8 M
[8] = compound 10^−11 moles/litre + NTI 5 × 10^−8 M

Row | Compound | % contraction inhibition after addition of Naltrindol NTI [1, 3] [%] | % contraction inhibition ([1]; compound 10^−6 moles/litre) [%] | % contraction inhibition after addition of Naltrindol NTI [1, 4] [%] | % contraction inhibition ([1]; compound 10^−7 moles/litre) [%] | % contraction inhibition after addition of Naltrindol NTI [1, 5] [%] | % contraction inhibition ([1]; compound 10^−8 moles/litre) [%] | % contraction inhibition after addition of Naltrindol NTI [1, 6] [%] | % contraction inhibition ([1]; compound 10^−9 moles/litre) [%] | % contraction inhibition after addition of Naltrindol NTI [1, 7] [%] | % contraction inhibition ([1]; compound 10^−10 moles/litre) [%] | % contraction inhibition after addition of Naltrindol NTI [1, 8] [%] | % contraction inhibition ([1]; compound 10^−11 moles/litre) [%] | activity towards the delta opioid receptors [1] | Ki [2] [nM] | inhibition ([1]; compound 10^−6 moles/litre + ICI 17.4864 2 × 10^−6 M) [%] | inhibition ([1]; compound 10^−7 moles/litre + ICI 17.4864 2 × 10^−6 M) [%] | inhibition ([1]; compound 10^−8 moles/litre + ICI 17.4864 2 × 10^−6 M) [%] | inhibition ([1]; compound 10^−9 moles/litre + ICI 17.4864 2 × 10^−6 M) [%] | inhibition ([1]; compound 10^−10 moles/litre + ICI 17.4864 2 × 10^−6 M) [%] | inhibition ([1]; compound 10^−11 moles/litre + ICI 17.4864 2 × 10^−6 M) [%]
1 | C=CCN1C2CCC1C1CCC2N1C(c1ccc(C(=O)N(CC)CC)cc1)c1cccc(OC)c1 (stereo not shown) [Example 6.1, 4-[(10-allyl-9,10-diazatricyclo[4.2.1.1^2,5]dec-9-yl)-(3-methoxyphenyl)methyl]-N,N-diethylbenzamide] | 41.0 | 86.0 | 24.9 | 71.5 | 19.0 | 51.0 | 11.5 | 32.0 | 5.0 | 16.0 | 4.0 | 5.5 | agonist activity | 1630 ± 186 |  |  |  |  |  | 
2 | C=CCN1C2CCC1C1CCC2N1C(c1ccc(C(=O)N(CC)CC)cc1)c1cccc(O)c1 (stereo not shown) [Example 6.9, 4-[(10-allyl-9,10-diazatricyclo[4.2.1.1^2,5]dec-9-yl)-(3-hydroxyphenyl)methyl]-N,N-diethylbenzamide] | 67.5 | 85.0 | 29.0 | 83.0 | 8.9 | 70.0 | 5.2 | 40.0 | 4.5 | 17.0 | 3.0 | 7.5 | agonist activity | 20 ± 0.5 | 52.2 | 28.2 | 9.5 | 4 | 2.5 | 1.8
